Results on one compound are retold here after EP0579806B1, “MEDICAMENT FOR THE TREATMENT AND/OR PROPHYLAXIS OF FOLATE METABOLISM DISORDERS” (Kragler, Peter, priority 1992, dated 1993).

A short description of the data set: Red blood count and megakaryocyte function before and after therapy in HIV-positive patients. The format is in vivo, Mensch. To be noted: patients pretreated with a chain terminator, before therapy. The text has this: Folgende Laborparameter wurden vor und nach der Therapie an 23 HIV-positiven Patienten mit verschiedener klinischer Symptomatik bestimmt: • 1. Rotes Blutbild und Megakaryozytenfunktion • 2. Weißes Blutbild und Lymphozytensubpopulation • 3. Lymphozytenstimulation • 4. Proteine • a) Gesamteiweiß • b) Elektrophorese • c) Immunelektrophorese • d) zirkulierende Immunkomplexe (CIC) • 5. B12-Gehalt • a) Serum pg/ml • b) Erythrozyten pg/ml Zellen • c) mononukleäre Zellen pg/ml Zellen • 6. Folat-Gehalt • a) Serum ng/ml • b) Erythrozyten ng/ml Zellen • c) mononukleäre Zellen ng/ml Zellen • 7. HIV (Elisa) in Titerstufen • 8. HIV - Westernblot (P24-core, P55-gag, gP41-env, gP120-env, gP160-env) mit Bewertung der Banden von + bis ++++ • 9. β2-Mikroglobulin korreliert • a) mit der Aktivität der NK-Zellen (ADCC = antibody dependent cellmediated cytotoxicity) • b) mit der Aktivität der CD8- NK-Zellen • 10. Neopterin Zwischenprodukt der Reaktion GPT (Guanosintriphosphat) --> Tetrahydrobiopterin (Hydroxylierung von Phenylalanin, Tyrosin und Tryptophan) Die Bedeutung von Neopterin ist zur Zeit noch Gegenstand wissenschaftlicher Untersuchungen. • 11. Lysozym (Muramidase) Messung der Granulozytenaktivität • 12. Serologie sexuell übertragbarer Krankheiten (STD) […]

For the compound `Cc1cn([C@H]2C[C@H](N=[N+]=[N-])[C@@H](CO)O2)c(=O)[nH]c1=O` [AZT, Azidothymidin], the “makrozytäre, hyperchrome Anämie (MCV, Hbe erhöht)” value was “noch ausgeprägter”.
